Usually IC50 stands for the concentration needed to halve the response being measured.

These results are taken from ChEMBL document CHEMBL5257091, “Hydrazinecarbonyl-thiazol-2-acetamides with pronounced apoptotic behavior: synthesis, in vitro/in vivo anti-proliferative activity and molecular modeling simulations” (Bioorg Med Chem Lett, 2023).

Series [1] has as its system HepG2. Put plainly: Antiproliferative activity against human HepG2 cells assessed as inhibition of cell growth incubated for 24 hrs by MTT assay. Format: functional, cell-based. The note with it: HepG2, 24 h. In general terms: Tetrazolium assays rely on reduction of a dye to a coloured formazan, in cell work by metabolically active cells.
For series [2], the system named is HeLa. The experiment in a line: Antiproliferative activity against human HeLa cells assessed as inhibition of cell growth incubated for 24 hrs by MTT assay. It is filed as functional, cell-based.
The subject of series [3] is MCF7. The experiment in a line: Antiproliferative activity against human MCF7 cells assessed as inhibition of cell growth incubated for 24 hrs by MTT assay. It is filed as functional, cell-based. The settings on record: MCF7, 24 h.
The subject of series [4] is HCT-116. Put plainly: cells. The settings on record: Homo sapiens, HCT-116, 24 h.
Description: Antiproliferative activity against human HCT-116 cells assessed as inhibition of cell growth incubated for 24 hrs by MTT assay
In series [5] the test system is HEp-2. The experiment in a line: Antiproliferative activity against human HEp-2 cells assessed as inhibition of cell growth incubated for 24 hrs by MTT assay. It is filed as functional, cell-based. The note with it: HEp-2, 24 h.
The subject of series [6] is PC-3. The experiment in a line: Antiproliferative activity against human PC-3 cells assessed as inhibition of cell growth incubated for 24 hrs by MTT assay. The settings on record: PC-3, 24 h. Format: functional, cell-based.
Series [7] can be described thus: Selectivity index, ratio of IC50 for cytotoxicity against human WI-38 cells to IC50 for antiproliferative activity against human HCT-116 cells. The note with it: WI-38 cells and HCT-116 cells, read-out: Ratio IC50. Format: toxicity, cell-based.
Series [8] has as its target T1, Dihydrofolate reductase (Homo sapiens, UniProt P00374).
T1 sequence (P00374 whole entry): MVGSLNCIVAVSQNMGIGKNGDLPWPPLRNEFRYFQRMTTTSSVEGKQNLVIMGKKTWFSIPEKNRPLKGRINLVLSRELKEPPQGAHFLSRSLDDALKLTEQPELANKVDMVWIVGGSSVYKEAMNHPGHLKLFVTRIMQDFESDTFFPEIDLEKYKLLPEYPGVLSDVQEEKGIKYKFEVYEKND
The experiment in a line: Inhibition of DHFR (unknown origin) incubated for 2 to 5 mins by absorbance based analysis.

A short description of series [9]: Selectivity index, ratio of IC50 for cytotoxicity against human WI-38 cells to IC50 for antiproliferative activity against human HEp-2 cells. Format: toxicity, cell-based. The note with it: WI-38 cells and HEp-2 cells, read-out: Ratio IC50.
Series [10] can be described thus: Selectivity index, ratio of IC50 for cytotoxicity against human WI-38 cells to IC50 for antiproliferative activity against human PC-3 cells. The note with it: WI-38 cells and PC-3 cells, read-out: Ratio IC50. It is filed as toxicity, cell-based.
A short description of series [11]: Selectivity index, ratio of IC50 for cytotoxicity against human WI-38 cells to IC50 for antiproliferative activity against human MCF7 cells. It is filed as toxicity, cell-based. The settings on record: WI-38 cells and MCF7 cells, read-out: Ratio IC50.
A short description of series [12]: Selectivity index, ratio of IC50 for cytotoxicity against human WI-38 cells to IC50 for antiproliferative activity against human HeLa cells. Format: toxicity, cell-based. The settings on record: WI-38 cells and HeLa cells, read-out: Ratio IC50.
A short description of series [13]: Cytotoxicity against human WI-38 cells assessed as inhibition of cell growth incubated for 24 hrs by MTT assay. It is filed as toxicity, cell-based.
Series [14] has as its target Epidermal growth factor receptor (Homo sapiens, UniProt P00533). Put plainly: Inhibition of EGFR (unknown origin) by fluorimetric assay.
Series [15] can be described thus: Selectivity index, ratio of IC50 for cytotoxicity against human WI-38 cells to IC50 for antiproliferative activity against human HepG2 cells. Format: toxicity, cell-based. The settings on record: WI-38 cells and HepG2 cells, read-out: Ratio IC50.
Series [16] concerns Ehrlich. The experiment in a line: Antitumor activity against mouse Ehrlich cells implanted in Swiss albino mouse assessed as reduction in tumor volume at 10 mg/kg, iv administered once daily for 20 days relative to control. Format: functional. The arrangement: scale not given: the % may be the effect or the level left. The settings on record: time 20 day.
Series [17] can be described thus: Toxicity in Swiss albino mouse implanted with mouse Ehrlich cells assessed as mean body weight at 10 mg/kg, iv administered once daily for 20 days (reference value: 30 g). It is filed as organism-based. The note with it: in vivo, 480 h, time 20 day.
Series [18] is described as follows: Toxicity in Swiss albino mouse implanted with mouse Ehrlich cells assessed as reduction in body weight gain at 10 mg/kg, iv administered once daily for 20 days relative to control. It is filed as organism-based. The arrangement: scale not given: the % may be the effect or the level left. The settings on record: in vivo, 480 h, time 20 day.

Sequence of Epidermal growth factor receptor (P00533 whole entry): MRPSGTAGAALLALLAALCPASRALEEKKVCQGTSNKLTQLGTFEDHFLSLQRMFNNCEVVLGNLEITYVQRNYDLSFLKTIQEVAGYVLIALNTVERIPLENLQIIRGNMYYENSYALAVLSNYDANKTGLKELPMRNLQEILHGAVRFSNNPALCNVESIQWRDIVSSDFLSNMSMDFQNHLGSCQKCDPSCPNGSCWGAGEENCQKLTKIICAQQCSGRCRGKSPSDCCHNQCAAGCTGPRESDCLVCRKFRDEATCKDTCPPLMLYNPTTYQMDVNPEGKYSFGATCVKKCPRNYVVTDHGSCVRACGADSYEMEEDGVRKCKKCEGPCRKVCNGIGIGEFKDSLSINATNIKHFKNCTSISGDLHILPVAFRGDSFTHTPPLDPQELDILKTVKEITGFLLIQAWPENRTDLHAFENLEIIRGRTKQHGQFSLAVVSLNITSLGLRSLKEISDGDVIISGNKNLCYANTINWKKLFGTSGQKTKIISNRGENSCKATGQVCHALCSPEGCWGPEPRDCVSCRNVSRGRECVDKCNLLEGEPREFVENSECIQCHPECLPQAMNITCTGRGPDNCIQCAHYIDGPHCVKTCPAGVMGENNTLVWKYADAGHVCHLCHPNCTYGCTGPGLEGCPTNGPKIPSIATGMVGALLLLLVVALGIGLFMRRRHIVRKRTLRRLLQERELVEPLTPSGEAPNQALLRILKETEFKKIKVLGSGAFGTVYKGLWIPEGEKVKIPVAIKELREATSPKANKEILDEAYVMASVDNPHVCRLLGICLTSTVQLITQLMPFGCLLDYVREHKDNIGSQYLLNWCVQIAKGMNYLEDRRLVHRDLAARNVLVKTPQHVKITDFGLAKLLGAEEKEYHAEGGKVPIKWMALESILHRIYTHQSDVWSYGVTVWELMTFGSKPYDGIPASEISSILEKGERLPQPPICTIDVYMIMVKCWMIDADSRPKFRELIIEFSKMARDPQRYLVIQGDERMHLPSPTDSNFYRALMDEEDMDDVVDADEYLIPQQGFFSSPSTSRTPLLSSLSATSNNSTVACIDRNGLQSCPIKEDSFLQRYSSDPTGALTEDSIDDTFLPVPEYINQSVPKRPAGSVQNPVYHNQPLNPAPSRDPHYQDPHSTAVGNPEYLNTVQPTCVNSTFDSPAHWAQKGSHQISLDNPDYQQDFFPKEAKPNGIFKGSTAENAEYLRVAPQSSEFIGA

Consider `CC(=O)Nc1nc(C(=O)NNC(=O)CN2CCN(Cc3ccccc3)CC2)cs1`, for which the IC50 was 74.5 µM in [1]; 52.6 µM in series [2]; 57.7 µM in [3]; 66 µM in series [4]; 84.8 µM in series [5]; 92.3 µM in [6].

As to `CC(=O)Nc1nc(C(=O)NNC(=O)CCN2CCOCC2)cs1`, the IC50 in series [1] was found to be 7.34 µM; in series [2], 3.81 µM; in series [3], 5.81 µM; in series [4], 13.2 µM; in series [8], 0.159 µM; in series [5] it was 9.19 µM. The IC50 in series [6] amounted to 10.5 µM; in series [14] it was 0.143 µM. In addition, the selectivity ratio in series [7] came out at 4.06; in series [9] it was 5.82; in series [10], 5.08; in [11], 9.2; in series [12], 14; in series [15], 7.29. For the same compound, the IC50 at 24 h in series [13] turned out to be 53.5 µM.

In the case of `CC(=O)Nc1nc(C(=O)NNC(=O)CCl)cs1`, the IC50 was 43.8 µM in [1]; 35.3 µM in series [2]; 39.1 µM in series [3]; 52.3 µM in series [4]; 58 µM in series [5]; 54.7 µM in [6].

For `CC(=O)Nc1nc(C(=O)NNC(=O)CN2CCOCC2)cs1`, the IC50 in [1] was 20.8 µM; in [2], 15.5 µM; in series [3], 13.6 µM; in series [4], 26.4 µM; in [5] it was 17.2 µM; in series [6] it was 29.8 µM. Moreover, the selectivity ratio in [7] amounted to 1.41; in series [9] it was 2.17; in series [10], 1.25; in series [11] it was 2.73; in series [12], 2.42; in series [15], 1.79. Moreover, the IC50 at 24 h in [13] came out at 37.2 µM.

For `CCC(=O)NNC(=O)c1csc(NC(C)=O)n1`, the half-maximal inhibitory concentration (IC50) worked out at 39.3 µM in series [1]; 26.9 µM in series [2]; 32.8 µM in series [3]; 42.7 µM in series [4]; 43.2 µM in series [5]; 47.5 µM in [6].

For `CC(=O)Nc1nc(C(=O)NNC(=O)CN2CCCCC2)cs1`, the IC50 in series [1] was 12.4 µM; in [2], 13.9 µM; in series [3] it was 16.4 µM; in [4], 24.5 µM; in [5], 19.7 µM; in [6], 18 µM. The selectivity ratio in [7] is 2.47; in [9] it was 3.07; in series [10], 3.35; in series [11], 3.68; in series [12], 4.34; in series [15], 4.88. The IC50 at 24 h in series [13] worked out at 60.5 µM.

Regarding `CC(=O)Nc1nc(C(=O)NNC(=O)CN2CCN(C)CC2)cs1`, the IC50 in series [1] amounted to 83.6 µM; in [2], 78.6 µM; in series [3] it was 62.8 µM; in [4], 91.8 µM; in series [5] it was 89.9 µM.

Regarding `CC(=O)NNC(=O)c1csc(NC(C)=O)n1`, the IC50 in series [1] amounted to 87.2 µM; in series [2], 57.4 µM; in [3], 49.4 µM; in [4], 69.3 µM; in [5], 72.1 µM.

Regarding `CC(=O)Nc1nc(C(=O)NNC(=O)CCCl)cs1`, the figures for the IC50 in series [2], in series [3] and in series [5] were 86.4 µM, 69.2 µM and 93.2 µM, respectively.

For the compound `COc1cccc2c1C(=O)c1c(O)c3c(c(O)c1C2=O)C[C@@](O)(C(=O)CO)C[C@@H]3O[C@H]1C[C@H](N)[C@H](O)[C@H](C)O1` [DOXORUBICIN], the Activity in [16] is recorded as 78.9%; in [17] it was 27 g; in series [18], 25%.

Turning to `CC(=O)Nc1nc(C(=O)NNC(=O)CCN2CCN(C)CC2)cs1`, the IC50 in series [1] is 9.85 µM; in series [2], 7.92 µM; in series [3], 8.36 µM; in [4], 18.4 µM; in series [8], 0.678 µM; in series [5], 11.2 µM. Moreover, the IC50 in series [6] was 14.3 µM; in series [14], 0.131 µM. Also, the selectivity ratio was 2.54 in series [7]; 4.17 in series [9]; 3.27 in [10]; 5.6 in series [11]; 5.92 in [12]; 4.76 in [15]. Moreover, in series [13], the IC50 at 24 h worked out at 46.9 µM.

`CC(=O)Nc1nc(C(=O)NNC(=O)CCN2CCN(Cc3ccccc3)CC2)cs1`: the IC50 in series [1] came out at 28.7 µM; in series [2], 23.6 µM; in series [3] it was 29.3 µM; in series [4], 37.1 µM; in series [5] it was 39 µM; in [6] it was 34.4 µM.
